The values that follow come from patent publication US6787530B1, “Use of pregnane-diones as analgesic agents” (priority 1996, dated 2004).

In data set [1] the test system is Wistar rat. In words: Electrical current threshold for pain (ECT) in the tail after intragastric dosing, pilot experiment. The format is in vivo. As to conditions: 150 mg suspended in 1% Cremophor EL, 99% saline, intragastrically; one rat approx. 200 g. The protocol: We performed a pilot experiment on one drug naive nale Wistar rat that weighed approximately 200 g. We measured the nociceptive (pain) threshold in the tail using electrical current as the noxious stimulus. We measured the electrical current threshold for pain (ECT) in the tail every five minutes until the readings stabilised. We then gave 150 mg alphadolone acetate suspended in 1% Cremophor EL, 99% saline, intragastrically.

Data set [2] deals with spinal cord GABAA receptors. The protocol:
A study was performed on five rats. Alphadolone ([…]) was suspended in normal saline. The five rats were randomised to receive on two different occasions on two different days either […]. This was a cross-over study such that on the following occasion if a rat had received vehicle on the first occasion then it received alphadolone on the second occasion and vice versa. This dosing was randomised and the observer making measurements of pain thresholds was blinded to the nature of the drug given to these rats. In each experiment, the electrical current threshold in the neck and the tail were measured every five minutes until three stable readings were obtained. Then either vehicle or alphadolone 750 mg per kg suspended in saline was instilled into the stomach via an oesophageal needle. Five minutes later and every five minutes thereafter, electrical current thresholds for nociception were measured in the skin of the tail and neck At 60 minutes 10 pmol of bicuculline in 5 μl 6% dextrose was injected intrathecally down a Portex catheter that had been implanted previously in the lumbar sub arachnoid space to lie adjacent to the most caudal segments of spinal cord responsible for tail innervation.

For data set [3] the following is noted: Glaxo in-house experiments; cited from earlier work.
Data set [4] has as its system patients scheduled for knee reconstruction surgery. In words: Phase 1 study of oral alphadolone: side effects (sedation, nausea, respiratory depression, disorientation). The format is in vivo, human. The protocol: The study consisted of two phases. The first phase was a dose escalation study. At any time during this phase as well as the second phase, if the patient was randomised to receive placebo then a capsule containing lactose was administered orally at the time of medication. If the patient was randomised to receive alphadolone then the first patient so randomised received 25 mg alphadolone acetate orally. The patient was monitored for efficacy of the medication and side effects. If there were no unacceptable side effects such as respiratory depression or severe sedation or disorientation then the next patient randomised to receive the active treatment received a higher dose. The dose escalation planned was in the order, 25, 50, 100, 250, 500 and 1000 mg. The original plan was to continue dose escalation until unacceptable side effects occurred and then to reduce the dose to go onto the next, second, phase of the study, a double-blind comparison of the dose just below the high dose that produced unacceptable side effects compared with placebo. However, the view of the Ethics Committee was that this was more appropriate to a drug company sponsored trial and they ordered that the trial should switch from the dose escalation phase to the comparison phase when there was clear evidence of efficacy.
No premedication was given. The patients were taken to the operating theatre and subjected to a standardised anaesthetic regime that consisted of a propofol induction followed by a propofol infusion and the muscle relaxant of the anaesthetist's preference The trachea was intubated and lungs ventilated with a mixture of nitrous oxide and oxygen. Morphine 1-2 mg intravenously was given as indicated by normal signs of depth of anaesthesia. The amount of morphine used in the operating theatre was recorded in the case record form. After the end of surgery, the muscle relaxant was reversed with atropine and neostigmine and the patient sent to recovery. In the recovery ward the patient was reintroduced to the patient controlled analgesia machine containing morphine to deliver a dose of 1 mg increments with a lock out time of 5 minutes. The patient spent approximately half an hour in recovery ward and was then sent to the ward. The following observations and measurements were made one hour before, half an hour before, and just before giving the test medication (placebo or alphadolone) orally with 100 ml of water. The observations were continued every half hour thereafter until six hours after the capsule had been given:
Sedation on a four point score none, mild, moderate, unseasonable;
Nausea score rating none, mild, moderate, severe vomiting;
Respiratory depression scores as
none—respiratory rate greater than 10 oxygen saturation greater than 95%
mild—respiratory rate great than 6 and less than 10 oxygen saturation greater than 95%
moderate—respiratory rate less than 6 but oxygen saturation greater than 95%
unreasonable—respiratory rate less than 6 and/or oxygen saturation less than 95%
Light-headedness scored from none (no dizziness), mild (light dizziness but no nystagmus), moderate (feels dizzy and has nystagmus), severe (very dizzy with nausea);
Slurred speech scored as none, mild, moderate, severe;
Presence of disorientation;
Gaze evoked nystagmus scored as none, mild (1-2 jerks), moderate (constant slow jerks), severe (fast jerks and feeling dizzy);
Lack of co-ordination with two tests (a) close eyes touch nose with finger (b) touch 1, 2, 3, 4 fingers in turn with thumb; classified as none (both tests accomplished), mild (both tests accomplished but slowly), moderate (one test achieved after two attempts), severe (failed both tests after two attempts at each).
The total number of 0's, 1's, 2's, 3's and 4's recorded during the six hours after capsule administration were totalled for the five placebo treated and seven alphadolone treated patients and entered into a contingency table (table 2).

The subject of data set [5] is rats. Kind of data set: Loss of righting reflex and loss of coordination in the rotarod test after intraperitoneal dosing. The source says:
Groups of 10 rats were examined for the duration of the loss of righting reflex and loss of coordination in the rotarod test and also for antinociceptive effects in the electrical current threshold test measured in the tail. […] Thus we were able to compare the duration of sedation and anaesthesia and quantity of antinociception following intraperitoneal administration of the neurosteroid mixture and also following the components of the mixture at the doses which were given when the combination was used.
We have gone on to test the ability for alphadolone to produce sedation. We have given doses up to […] intraperitoneally of alphadolone.
For orientation: The rotarod test checks motor coordination on a turning rod.

In data set [6] the test system is mice. Kind of data set: PAN LABS toxicity test. It is filed as in vivo, mouse. The protocol:
The experiments from our laboratory are supported by observations by an independent body, PAN LABS. A sample of alphadolone used in the above experiments in rats in our laboratory was sent to a commercial drug-testing house, called PAN LABS. They gave the drug to a number of preparations to look for toxicity effects as well as pharmacological effect. In one toxicity test performed at PAN LABS, doses of up to 300 mg per kg of alphadolone was given to mice.

[7] abbreviates: six hours after capsule, 100, 250 and 500 mg orally, n = 7.

Entries after “also recorded” stand apart in the source; their conditions may differ.

For the compound `CC(=O)OCC(=O)[C@H]1CC[C@H]2[C@@H]3CC[C@H]4C[C@H](O)CC[C@]4(C)[C@H]3C(=O)C[C@]12C` [alphadolone, 21-acetoxy-3alpha-hydroxy-5alpha-pregnane-11,20-dione], the “electrical current threshold for pain (ECT) in the tail” value in data set [1] was “significant rise in tail pain thresholds”. For the same compound, the “electrical current threshold in the skin of the tail and the neck” value in data set [2] (750 mg per kg intragastric, suspended in saline, five rats, cross-over vs vehicle) is on record as “sharp rise in the electrical current threshold”. The “sedation (observation of the animals)” value in data set [2] (750 mg per kg intragastric, five rats) was “no animals seemed to be sedated in any form whatsoever”. Also, in data set [2] (given intragastrically to rats), the “antinociception (pain relief)” value is “powerful antinociception”. Besides, the sedation result in data set [2] (range of doses intragastrically to rats) is listed as “no sedation, even at very large doses”. In addition, the “intravenous anaesthetic potency relative to alphaxolone” value in data set [3] is given as “one-third the potency”. In data set [4] (dose escalation, 25 to 500 mg orally, humans), the “side effects: sedation, nausea, disorientation, respiratory depression” value is “No sedation, nausea or disorientation or respiratory depression; also recorded: well tolerated up to a dose of 500 mg orally; also recorded: no sedation or disorientation whatsoever”. In addition, the “nausea score and sedation score compared with placebo (chi-square)” value in data set [4] (n = 7 vs placebo n = 5, P=0.9459 nausea, P=0.8661 sedation) is “no significant difference”. For the same compound, in data set [4] (setting [7]), the “Nausea score 0 (none), number of scores” value turned out to be 72; the “Nausea score 1 (mild), number of scores” value was found to be 10; the “Nausea score 2 (moderate), number of scores” value was found to be 1; the “Sedation score 0 (none), number of scores” value is on record as 20. In data set [4] (setting [7]), the “Sedation score 1 (mild), number of scores” value is listed as 48 and the “Sedation score 2 (moderate), number of scores” value is given as 15. Also, in data set [5] (0.1 to 100 mg/kg intraperitoneally, rats), the sedative effects entry is “No sedative effects were observed”. The “sedation, loss of coordination, abnormal behaviour” value in data set [5] (doses up to 300 mg/kg intraperitoneally (b128 prints 300 mg/g), rats) is recorded as “no sedative effects whatsoever; also recorded: no evidence of sedation or loss of coordination”. Further, in data set [5] (ip, Saffan 2 ml/kg, alphaxalone 18 mg/kg, alphadolone 6 mg/kg, groups of 10 rats), the “sedation and anaesthesia (loss of righting reflex, loss of coordination in rotarod test)” value is “no sedation or loss of righting reflex”. Further, the grip strength entry in data set [6] (300 mg/kg, mice) is reported as “mild decrease in grip strength; also recorded: slight decrease in grip strength”. Further, the anaesthesia result in data set [6] (doses of up to 300 mg per kg given to mice) is “did not produce anaesthesia”.
